pIC50: −log10 of the molar value.
Molecular target: recombinant full length HPK-1 enzyme (Homo sapiens (Human), UniProt Q92918)
Assay: HPK-1 biochemical enzyme assay (ADP-Glo kinase inhibition)
Details: recombinant full length HPK-1 6.8 nM, 10 μM ATP, 12.5 μM MBP, 30 mins at 25° C.
Method: HPK-1 biochemical enzyme assay
Compound inhibitory potency was measured in an HPK-1 kinase inhibition assay. Briefly, recombinant full length HPK-1 enzyme (6.8 nM) was incubated with 10 μM ATP and 12.5 μM swine myelin basic protein (MBP) for 30 mins. at 25° C. in the presence of various concentrations of test compound or vehicle in 40 mM Tris.Cl pH7.4 buffer containing 20 mM MgCl2, 50 μM DTT and 0.1 mg/mL BSA. Reactions were quenched and reaction mixtures were then analyzed by an ADP-Glo kit which measures the formed ADP. The percent inhibition was calculated from the substrate conversion considering no enzyme control reactions for 100% inhibition and vehicle only reactions for 0% inhibition. The compounds were dissolved in DMSO and evaluated at 10 concentrations to determine an IC50 value.
In the below table A denotes an HPK-1 IC50≤10 nM, B denotes an HPK-1 IC50>10 nM but≤100 nM and C denotes an HPK-1 IC50>100 nM but≤1000 nM.

Chain of recombinant full length HPK-1 enzyme (Q92918 whole entry, species assumed): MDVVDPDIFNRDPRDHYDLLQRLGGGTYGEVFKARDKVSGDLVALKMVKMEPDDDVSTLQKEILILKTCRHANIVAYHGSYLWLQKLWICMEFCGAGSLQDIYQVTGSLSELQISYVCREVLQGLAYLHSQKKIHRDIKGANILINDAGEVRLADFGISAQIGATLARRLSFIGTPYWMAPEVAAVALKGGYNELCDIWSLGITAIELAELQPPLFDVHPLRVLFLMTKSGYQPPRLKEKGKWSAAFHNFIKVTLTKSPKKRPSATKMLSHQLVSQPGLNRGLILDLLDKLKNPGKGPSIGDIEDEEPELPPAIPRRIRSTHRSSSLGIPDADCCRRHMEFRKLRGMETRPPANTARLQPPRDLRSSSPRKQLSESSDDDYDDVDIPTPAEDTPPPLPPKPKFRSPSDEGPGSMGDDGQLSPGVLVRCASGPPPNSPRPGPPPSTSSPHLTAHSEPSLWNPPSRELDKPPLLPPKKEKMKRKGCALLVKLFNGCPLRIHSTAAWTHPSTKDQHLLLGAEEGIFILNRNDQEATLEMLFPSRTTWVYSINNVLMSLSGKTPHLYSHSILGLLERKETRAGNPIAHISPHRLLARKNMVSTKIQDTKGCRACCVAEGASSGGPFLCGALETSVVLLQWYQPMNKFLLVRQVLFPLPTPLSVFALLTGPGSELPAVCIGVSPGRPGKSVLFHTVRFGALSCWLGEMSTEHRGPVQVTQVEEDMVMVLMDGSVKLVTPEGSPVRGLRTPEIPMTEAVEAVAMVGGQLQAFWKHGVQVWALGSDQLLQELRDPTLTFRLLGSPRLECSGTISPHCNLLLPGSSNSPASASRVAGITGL

SMILES | pIC50
CCC(=O)N1CCN(c2ccc(NC(=O)c3c(Nc4cnc5c(c4C)NCCO5)cc[nH]c3=O)cc2)C[C@@H]1C [Example 345, (S)-4-((8-methyl-2,3-dihydro-1H-pyrido[2,3-b][1,4]oxazin-7-yl)amino)-N-(4-(3-methyl-4-propionylpiperazin-1-yl)phenyl)-2-oxo-1,2-dihydropyridine-3-carboxamide] | ≥ 8.00
Cc1c(Nc2cc[nH]c(=O)c2C(=O)Nc2ccc(N3CCNC(=O)C3)cc2)cnc2c1NCCO2 [Example 268, 4-((8-methyl-2,3-dihydro-1H-pyrido[2,3-b][1,4]oxazin-7-yl)amino)-2-oxo-N-(4-(3-oxopiperazin-1-yl)phenyl)-1,2-dihydropyridine-3-carboxamide] | 7.00 to 8.00
Cc1c(Nc2cc[nH]c(=O)c2C(=O)Nc2ccc(N3CCN(CC(=O)N(C)C)CC3)cc2)cnc2c1NCCO2 [Example 298, N-(4-(4-(2-(dimethylamino)-2-oxoethyl)piperazin-1-yl)phenyl)-4-((8-methyl-2,3-dihydro-1H-pyrido[2,3-b][1,4]oxazin-7-yl)amino)-2-oxo-1,2-dihydropyridine-3-carboxamide] | ≥ 8.00
Cc1c(Nc2cc[nH]c(=O)c2C(=O)Nc2ccc(N3CCN(C(=O)C4CC(C)(C)C4)CC3)cc2)cnc2c1NCCO2 [Example 304, N-(4-(4-(3,3-dimethylcyclobutane-1-carbonyl)piperazin-1-yl)phenyl)-4-((8-methyl-2,3-dihydro-1H-pyrido[2,3-b][1,4]oxazin-7-yl)amino)-2-oxo-1,2-dihydropyridine-3-carboxamide] | ≥ 8.00
Cc1c(Nc2cc[nH]c(=O)c2C(=O)Nc2ccc(N3CCN(C)[C@@H](C)C3)cc2)cnc2c1NCCO2 [Example 219, (S)-N-(4-(3,4-dimethylpiperazin-1-yl)phenyl)-4-((8-methyl-2,3-dihydro-1H-pyrido[2,3-b][1,4]oxazin-7-yl)amino)-2-oxo-1,2-dihydropyridine-3-carboxamide] | ≥ 8.00
Cc1c(Nc2cc[nH]c(=O)c2C(=O)Nc2ccc(N3CCN(C(C)C)CC3)cc2)cnc2c1NCCO2 [Example 106, N-(4-(4-isopropylpiperazin-1-yl)phenyl)-4-((8-methyl-2,3-dihydro-1H-pyrido[2,3-b][1,4]oxazin-7-yl)amino)-2-oxo-1,2-dihydropyridine-3-carboxamide] | ≥ 8.00
Cc1c(Nc2cc[nH]c(=O)c2C(=O)Nc2ccc(N3CCN(C(=O)N(C)C)CC3)cc2)cnc2c1NCCO2 [Example 137, N,N-Dimethyl-4-(4-(4-((8-methyl-2,3-dihydro-1H-pyrido[2,3-b][1,4]oxazin-7-yl)amino)-2-oxo-1,2-dihydropyridine-3-carboxamido)phenyl) piperazine-1-carboxamide] | ≥ 8.00
Cc1c(Nc2cc[nH]c(=O)c2C(=O)Nc2cccc(N3CCN(C)CC3)c2)cnc2c1NCCO2 [Example 222, 4-((8-methyl-2,3-dihydro-1H-pyrido[2,3-b][1,4]oxazin-7-yl)amino)-N-(3-(4-methylpiperazin-1-yl)phenyl)-2-oxo-1,2-dihydropyridine-3-carboxamide] | 6.00 to 7.00
Cc1c(Nc2cc[nH]c(=O)c2C(=O)Nc2ccc3c(c2)CCC(=O)N3C)cnc2c1NCCO2 [Example 250, 4-((8-methyl-2,3-dihydro-1H-pyrido[2,3-b][1,4]oxazin-7-yl)amino)-N-(1-methyl-2-oxo-1,2,3,4-tetrahydroquinolin-6-yl)-2-oxo-1,2-dihydropyridine-3-carboxamide] | 7.00 to 8.00
CCN1CCN(c2c(F)cc(NC(=O)c3c(Nc4cnc5c(c4C)NCCO5)cc[nH]c3=O)cc2Cl)CC1 [Example 389, N-(3-Chloro-4-(4-ethylpiperazin-1-yl)-5-fluorophenyl)-4-((8-methyl-2,3-dihydro-1H-pyrido[2,3-b][1,4]oxazin-7-yl)amino)-2-oxo-1,2-dihydropyridine-3-carboxamide] | ≥ 8.00
CCN1C(=O)C(C)(C)c2cc(NC(=O)c3c(Nc4cnc5c(c4C)NCCO5)cc[nH]c3=O)ccc21 [Example 218, N-(1-ethyl-3,3-dimethyl-2-oxoindolin-5-yl)-4-((8-methyl-2,3-dihydro-1H-pyrido[2,3-b][1,4]oxazin-7-yl)amino)-2-oxo-1,2-dihydropyridine-3-carboxamide] | 6.00 to 7.00
Cc1c(Nc2cc[nH]c(=O)c2C(=O)Nc2ccc(N3CCN(CCC#N)CC3)cc2)cnc2c1NCCO2 [Example 178, N-(4-(4-(2-cyanoethyl)piperazin-1-yl)phenyl)-4-((8-methyl-2,3-dihydro-1H-pyrido[2,3-b][1,4]oxazin-7-yl)amino)-2-oxo-1,2-dihydropyridine-3-carboxamide] | ≥ 8.00
COCC(=O)N1CCN(c2ccc(NC(=O)c3c(Nc4cnc5c(c4C)NCCO5)cc[nH]c3=O)cc2)CC1 [Example 284, N-(4-(4-(2-methoxyacetyl)piperazin-1-yl)phenyl)-4-((8-methyl-2,3-dihydro-1H-pyrido[2,3-b][1,4]oxazin-7-yl)amino)-2-oxo-1,2-dihydropyridine-3-carboxamide] | ≥ 8.00
Cc1c(Nc2cc[nH]c(=O)c2C(=O)Nc2ccc(N3CCN(c4ccncc4)CC3)cc2)cnc2c1NCCO2 [Example 288, 4-((8-methyl-2,3-dihydro-1H-pyrido[2,3-b][1,4]oxazin-7-yl)amino)-2-oxo-N-(4-(4-(pyridin-4-yl)piperazin-1-yl)phenyl)-1,2-dihydropyridine-3-carboxamide] | ≥ 8.00
Cc1c(Nc2cc[nH]c(=O)c2C(=O)Nc2ccc(N3CCN(C)CC3)cc2)cnc2c1NCC(C)(C)O2 [Example 172, N-(4-(4-methylpiperazin-1-yl)phenyl)-2-oxo-4-((3,3,8-trimethyl-2,3-dihydro-1H-pyrido[2,3-b][1,4]oxazin-7-yl)amino)-1,2-dihydropyridine-3-carboxamide] | 7.00 to 8.00
Cc1c(Nc2cc[nH]c(=O)c2C(=O)Nc2ccc(N3CCN(C(=O)C4CC(F)(F)C4)CC3)cc2)cnc2c1NCCO2 [Example 318, N-(4-(4-(3,3-difluorocyclobutane-1-carbonyl)piperazin-1-yl)phenyl)-4-((8-methyl-2,3-dihydro-1H-pyrido[2,3-b][1,4]oxazin-7-yl)amino)-2-oxo-1,2-dihydropyridine-3-carboxamide] | ≥ 8.00
Cc1c(Nc2cc[nH]c(=O)c2C(=O)Nc2ccc(N3CCN(C)CC3)cc2)cnc2c1N(C)CCO2 [Example 93, 4-((1,8-dimethyl-2,3-dihydro-1H-pyrido[2,3-b][1,4]oxazin-7-yl)amino)-N-(4-(4-methylpiperazin-1-yl)phenyl)-2-oxo-1,2-dihydropyridine-3-carboxamide] | 7.00 to 8.00
Cc1c(Nc2cc[nH]c(=O)c2C(=O)Nc2ccc(N3CCC(F)(F)CC3)cc2)cnc2c1NCCO2 [Example 161, N-(4-(4,4-difluoropiperidin-1-yl)phenyl)-4-((8-methyl-2,3-dihydro-1H-pyrido[2,3-b][1,4]oxazin-7-yl)amino)-2-oxo-1,2-dihydropyridine-3-carboxamide] | 7.00 to 8.00
Cc1c(Nc2cc[nH]c(=O)c2C(=O)Nc2ccc(N3CCN(C(=O)C(C)N(C)C)CC3)cc2)cnc2c1NCCO2 (stereo not shown) [Example 358, N-(4-(4-(dimethylalanyl)piperazin-1-yl)phenyl)-4-((8-methyl-2,3-dihydro-1H-pyrido[2,3-b][1,4]oxazin-7-yl)amino)-2-oxo-1,2-dihydropyridine-3-carboxamide] | 7.00 to 8.00
CCN1CCN(c2ccc(NC(=O)c3c(Nc4cnc5c(c4C)NCCO5)cc[nH]c3=O)cc2F)CC1 [Example 135, N-(4-(4-ethylpiperazin-1-yl)-3-fluorophenyl)-4-((8-methyl-2,3-dihydro-1H-pyrido[2,3-b][1,4]oxazin-7-yl)amino)-2-oxo-1,2-dihydropyridine-3-carboxamide] | ≥ 8.00
Cc1c(Nc2cc[nH]c(=O)c2C(=O)Nc2ccc(N3CC4CCC3CN4C)cc2)cnc2c1NCCO2 (stereo not shown) [Example 235, 4-((8-methyl-2,3-dihydro-1H-pyrido[2,3-b][1,4]oxazin-7-yl)amino)-N-(4-(5-methyl-2,5-diazabicyclo[2.2.2]octan-2-yl)phenyl)-2-oxo-1,2-dihydropyridine-3-carboxamide] | ≥ 8.00
Cc1c(Nc2cc[nH]c(=O)c2C(=O)Nc2ccc(N3CCC(C(N)=O)CC3)cc2)cnc2c1NCCO2 [Example 247, N-(4-(4-carbamoylpiperidin-1-yl)phenyl)-4-((8-methyl-2,3-dihydro-1H-pyrido[2,3-b][1,4]oxazin-7-yl)amino)-2-oxo-1,2-dihydropyridine-3-carboxamide] | ≥ 8.00
Cc1c(Nc2cc[nH]c(=O)c2C(=O)Nc2ccc(N3CCN(C(=O)C4CC(C)C4)CC3)cc2)cnc2c1NCCO2 (stereo not shown) [Example 307, 4-((8-methyl-2,3-dihydro-1H-pyrido[2,3-b][1,4]oxazin-7-yl)amino)-N-(4-(4-(3-methylcyclobutane-1-carbonyl)piperazin-1-yl)phenyl)-2-oxo-1,2-dihydropyridine-3-carboxamide] | ≥ 8.00
Cc1c(Nc2cc[nH]c(=O)c2C(=O)Nc2ccc(NC3CCN(C)CC3)cc2)cnc2c1NCCO2 [Example 209, 4-((8-methyl-2,3-dihydro-1H-pyrido[2,3-b][1,4]oxazin-7-yl)amino)-N-(4-((1-methylpiperidin-4-yl)amino)phenyl)-2-oxo-1,2-dihydropyridine-3-carboxamide] | 7.00 to 8.00
CNC(C)C(=O)N1CCN(c2ccc(NC(=O)c3c(Nc4cnc5c(c4C)NCCO5)cc[nH]c3=O)cc2)CC1 (stereo not shown) [Example 354, 4-((8-methyl-2,3-dihydro-1H-pyrido[2,3-b][1,4]oxazin-7-yl)amino)-N-(4-(4-(methylalanyl)piperazin-1-yl)phenyl)-2-oxo-1,2-dihydropyridine-3-carboxamide] | 7.00 to 8.00
